Marks after values point to notes of the source that are not given here.

The source of these data is patent publication US20210120808A1, “Methods and Systems for Synergistic Continuity Approaches to Treatment and Preservation of Biological Cells” (Membrane Protective Technologies, Inc., priority 2017, published 2021).

The test relates to phospholipase A2. In words: Egg yolk coagulation by goat seminal plasma in lactose yolk extender, image analysis with ImageJ. Format: biochemical. The protocol: An egg yolk extender was prepared substituting lactose (Trizma base 131.5 mM, Lactose 73 mM 40% v:v egg yolk), without citric acid and pH was adjusted to a standard extender pH of 7. Semen from […] was collected using an artificial vagina. The ejaculate was centrifuged for 5 min at 1000×g. The supernatant (seminal plasma) was removed, then 1 part seminal plasma was added to 1 part extender to create a 20% yolk solution. Extender was either lactose yolk extender alone or lactose yolk extender modified to contain the phospholipase inhibitor curcumin as found in Sea Buckthorn (see Gupta et al. Molecular and Cellular biochemistry October 2006 290:193, hereby incorporated by reference). Representative pictures were taken of each solution, then the 22° C. solutions of seminal plasma plus the various extenders were frozen to −80° C. and allowed to remain frozen for >24 hrs. Samples were thawed by incubation in 37° C. water bath for 1 minute, then representative pictures were taken. For each picture, the negative space (the white area visible between droplets) was measured using ImageJ software by adjusting the image threshold using “Auto” setting then analyzing particle size (see Rasband, W. S., ImageJ, U.S. National Institutes of Health, Bethesda, Md., USA, https://imagej.nih.gov/ij/, 1997-2018, hereby incorporated by reference). The mean particle size was recorded and the images were analyzed in triplicate. […] The left column is a non-limiting example of a pictorial representation of the lactose yolk solution without seminal plasma (control) pre-freezing and post-freezing. One observes that there is no significant change in the size of the egg yolk lipid droplets, and no coagulation has occurred.

On to `COc1cc(/C=C/C(=O)CC(=O)/C=C/c2ccc(O)c(OC)c2)ccc1O` [curcumin], for which, where the note is “area of coagulation, seminal plasma with vs without inhibitor, FIG. 8”, the “coagulation of egg yolk particles compared to Control” value is given as “statically significant decrease”. Further, the “Post-Thaw Area” value (frozen to −80° C. >24 hrs, thawed at 37° C., single pygmy buck, p < 0.05) is recorded as 35.6* pixel^2. Moreover, under “goat seminal plasma plus lactose yolk extender, 0.2% curcumin, single pygmy buck, p < 0.05”, the “Pre-Freeze Area” value is reported as 26.3* pixel^2. For the same compound, the pre-freeze coagulation result (pre-freeze seminal plasma with 0.2% plant-derived curcumin vs without curcumin) was “less coagulated”. Under “single pygmy buck, untreated seminal plasma ranks 2”, this compound yielded a Coagulation rank of 1.
